Entries after “also recorded” stand apart in the source; their conditions may differ.
Experiments:
lectin PA-IL [1] = target: T1, lectin PA-IL (Pseudomonas aeruginosa, UniProt Q05097); experiment: Analytical ultracentrifugation (sedimentation velocity), cross-linking of lectin; conditions: for level of cross-linking (6.4 S octameric species): 1:0.1 protein to ligand ratio, 22 µM PA-IL; for cross-linking of PA-IL (formation of the 6.4 S particle): protein:ligand ratios 1:0.1, 1:1, 1:10
T1 construct: made in house; host or cells: Escherichia coli BL21(DE3)
Description: Analytical ultracentrifugation experiments were performed using ProteomeLab XL-I analytical ultracentrifuge (Beckman Coulter, Indianapolis, IN, USA) equipped with an An-60 Ti rotor. Sedimentation velocity experiments were conducted in titanium double-sector centerpiece cells (Nanolytics Instruments, Potsdam, Germany) loaded with 390 µL of both protein sample and reference solution (PBS buffer, pH = 7.5). PA-IL without the added ligand and PA-IL samples pre-incubated with different concentrations of galactosylated dendrimers 4, 7, 10 and 13 and D-galactose (protein:ligand ratios of 1:0.1, 1:1 and 1:10) were analyzed by the sedimentation velocity experiment. All the measurements were performed in PBS buffer with 22 µM PA-IL. Data were collected using absorbance optics at 25 °C at a rotor speed of 48,000 rpm. Scans were collected at 280 nm (or alternatively at 294 nm to decrease the absorbance signal of the samples containing excess of the UV-absorbing ligands 4 and 10) at 5-min intervals and 0.003 cm spatial resolution in continuous scan mode. The partial specific volume of the protein and the solvent density and viscosity were calculated from the amino acid sequence and buffer composition, respectively, using the software Sednterp (http://bitcwiki.sr.unh.edu). The data were analyzed with the continuous c(s) distribution model implemented in the program Sedfit 15.01b. For the regularization procedure, a confidence level of 0.95 was used. The plots of c(s) distributions were created in GUSSI 1.3.1 [28].

[2] = system: adhesion of P. aeruginosa (ST 1763) to epithelial bronchial cells (CuFi-1); experiment: Ex vivo bacterial adherence assay: inhibition of P. aeruginosa adhesion to epithelial cells; assay type: cell-based, Pseudomonas aeruginosa; conditions: for bacterial adhesion compared to the untreated control: highest concentration (2 mM); for bacterial adhesion compared to the untreated control / inhibitory effect on bacterial adhesion compared to the control: 2 h incubation; for concentrations with significant protecting (anti-adhesion) effect: p < 0.05, Dunnett test
Description: Epithelial CuFi-1 cells (an immortalized epithelial cell line derived from cystic fibrosis human lungs, ATCC, Kielpin, Poland) were labelled with PKH67 (Fluorescent Cell Linker Kit, Sigma-Aldrich, St. Louis, MO, USA), a green fluorescent membrane marker, as follows. An aliquot of cell suspension containing 7 × 10^6 cells was washed with PBS buffer and centrifuged (100× g for 5 min). The cell pellet was resuspended in 250 µL of Diluent C (Fluorescent Cell Linker Kit, Sigma-Aldrich, St. Louis, MO, USA). Immediately, an equal volume of 8 µM PKH67 in Diluent C (2 µL of PKH67 in 248 µL of Diluent C) was added to the cell suspension. After 5 min incubation at room temperature with periodic mixing, the staining reaction was stopped by adding an equal volume of 1% Fetal Bovine Serum (FBS, Gibco^TM Invitrogen, Paisley, UK) in PBS. After 1 min incubation with FBS, the suspension was centrifuged (100× g for 10 min). Finally, the cells were washed three times with Bronchial Epithelial Cell Growth Basal Medium (Lonza, Basel, Switzerland), followed by centrifugation (100× g for 5 min).
Pseudomonas aeruginosa strain 1763 (University Hospital Motol, Prague, Czech Republic) was stained with PKH26 (Fluorescent Cell Linker Kit, Sigma-Aldrich, St. Louis, MO, USA), a red fluorescent membrane marker. Bacteria were grown in a suspension culture in PS medium (peptone/casein digest) in an Erlenmeyer flask for 14 h. The culture was washed with PBS buffer and centrifuged (13,400× g for 5 min). The pellet containing 1.5 × 10^9 bacteria was resuspended in 125 µL of Diluent C (Fluorescent Cell Linker Kit, Sigma-Aldrich, St. Louis, MO, USA) and an equal volume of 16 µM PKH26 in Diluent C (2 µL of PKH26 in 123 µL of Diluent C) was added to the bacterial suspension. The bacteria/dye suspension was incubated for 30 min at room temperature with periodic mixing. The staining was quenched by adding an equal volume of 1% BSA (Bovine Serum Albumin, Merck, Kenilworth, NJ, USA) in PBS. The suspension was incubated with BSA for 1 min to allow the binding of excess dye and then centrifuged (15,700× g for 10 min). Bacteria were washed two times with PBS, followed by centrifugation (13,400× g for 7.5 and 5 min).
Epithelial cells CuFi-1 stained with PKH67 were seeded at 8.4 × 10^4 cells/well onto 96-well plates (CellBIND® 96-well Flat Clear Bottom Black Polystyrene Microplates, Corning Incorporated, Corning, NY, USA) and incubated for 42–45 h at 37 °C, 5% CO2 to form a confluent monolayer and regenerate. Prior to the assay, wells were washed with PBS. Compounds 4, 7, 10 and 13 were serially diluted with PBS to the desired concentrations. PKH26-stained bacteria P. aeruginosa were added to the diluted inhibitor solutions. Bacterial suspensions were immediately added to the wells (50 µL/well). The input ratio was about 100 bacteria per epithelial cell (8.4 × 10^6 bacteria/well). A suspension without any inhibitor was used as a control. After 2 h incubation at room temperature, the wells were extensively washed three times with PBS to remove non-adhered bacteria. The fluorescence of adhered P. aeruginosa cells (Ex 522 nm, Em 569 nm for PKH26) on epithelial cells (Ex 470 nm, Em 505 for PKH67) was quantified using the spectrofluorometer Tecan Infinite M200 Pro (Tecan Group Ltd., Männedorf, Switzerland). Results were expressed as a relative fluorescence ratio of P. aeruginosa/CuFi-1. Three independent incubations were performed.

lectin PA-IL [3] = target: T1, lectin PA-IL; experiment: Isothermal titration microcalorimetry (ITC); assay type: binding; conditions: for ΔH / Ka / −T ΔS / ΔG / n (stoichiometry): ITC, 25 °C; for Ka: association constant; for −T ΔS: calculated from ΔG = ΔH − TΔS; for ΔG: calculated from −RT ln Ka; for n (stoichiometry): single site-binding model
Description: All the experiments were performed on MicroCal iTC200 (Malvern Instruments, Malvern, UK) at 25 °C. The freeze-dried lectin PA-IL was dissolved in 0.1 M Tris/HCl, 500 μM CaCl2, pH = 7.5, and equilibrated at room temperature for 1 h before ITC measurements. Multivalent galactosylated compounds 4, 7, 10 and 13 were diluted in the same buffer and used in 0.25–0.5 mM concentrations. Aliquots of 2 µL of the compounds were added automatically to the 0.078 mM or 0.088 mM PA-IL in the calorimeter cell. Blank experiments (injections of compounds to the buffer) were performed and heat responses were subtracted. Integrated heat effects were analyzed by global fitting of data obtained from three independent titrations for each tested compound by non-linear regression using a single site-binding model (Microcal Origin 7, Malvern Instruments, Malvern, UK). Fitted data yielded the association constant (Ka) and the enthalpy of binding (ΔH). Other thermodynamic parameters, i.e., changes in free energy (ΔG) and entropy (ΔS), were calculated from the following equation: ΔG = ΔH − TΔS = −RT ln Ka, where T is the absolute temperature and R = 8.314 J mol^−1 K^−1. The monosaccharide D-galactose was used as a control; 4 mM D-galactose was added to the 0.147 mM PA-IL in the calorimeter cell. Two titration experiments were performed and the heat responses were processed and evaluated as mentioned above.

T1 sequence (Q05097 2-122): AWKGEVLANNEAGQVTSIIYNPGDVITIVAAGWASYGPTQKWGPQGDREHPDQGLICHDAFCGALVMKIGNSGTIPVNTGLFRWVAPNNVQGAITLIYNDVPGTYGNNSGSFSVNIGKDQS

Structure (SMILES)	level of cross-linking (6.4 S octameric species) (lectin PA-IL [1])	cross-linking of PA-IL (formation of the 6.4 S particle) (lectin PA-IL [1])	lower concentrations resulting in statistically significantly increased fluorescent signal (adhered bacteria) [2] [µM]	bacterial adhesion compared to the untreated control [2]	concentrations with significant protecting (anti-adhesion) effect [2] [mM]	ΔH (lectin PA-IL [3]) [kcal/mol]	Ka (lectin PA-IL [3])	−T ΔS (lectin PA-IL [3]) [kcal/mol]	ΔG (lectin PA-IL [3]) [kcal/mol]	n (stoichiometry) (lectin PA-IL [3])	inhibitory effect on bacterial adhesion compared to the control [2]	Kd (lectin PA-IL [3]) [nM]
OC[C@H]1O[C@@H](OCc2cn(CCn3cc(COCC(COCc4cn(CCn5cc(CO[C@@H]6O[C@H](CO)[C@H](O)[C@H](O)[C@H]6O)nn5)nn4)(COCc4cn(CCn5cc(CO[C@@H]6O[C@H](CO)[C@H](O)[C@H](O)[C@H]6O)nn5)nn4)COCc4cn(CCn5cc(CO[C@@H]6O[C@H](CO)[C@H](O)[C@H](O)[C@H]6O)nn5)nn4)nn3)nn2)[C@H](O)[C@@H](O)[C@H]1O [Compound 13]	~ 15%	induced the formation of the 6.4 S particle	≤ 125	~42%	≥ 1	-32.03 ± 0.347	470 ± 54.5 10^4 M^−1	22.9 ± 2.904	-9.11 ± 1.06	0.21 ± 0.01	–	–
COC(=O)c1cc(OCc2cn(CCOCCOCCOCCn3cc(CO[C@@H]4O[C@H](CO)[C@H](O)[C@H](O)[C@H]4O)nn3)nn2)c(OCc2cn(CCOCCOCCOCCn3cc(CO[C@@H]4O[C@H](CO)[C@H](O)[C@H](O)[C@H]4O)nn3)nn2)c(OCc2cn(CCOCCOCCOCCn3cc(CO[C@@H]4O[C@H](CO)[C@H](O)[C@H](O)[C@H]4O)nn3)nn2)c1 [Compound 4]	–	did not form intermolecular cross-links	–	–	–	-19.3 ± 0.241	128 ± 15.1 10^4 M^−1	11 ± 1.43	-8.32 ± 0.982	0.51 ± 0.01	no inhibitory effect; also recorded: no visible protective effect	–
OC[C@H]1O[C@@H](OCc2cn(CCOCCOCCOCCn3cc(COCC(COCc4cn(CCOCCOCCOCCn5cc(CO[C@@H]6O[C@H](CO)[C@H](O)[C@H](O)[C@H]6O)nn5)nn4)(COCc4cn(CCOCCOCCOCCn5cc(CO[C@@H]6O[C@H](CO)[C@H](O)[C@H](O)[C@H]6O)nn5)nn4)COCc4cn(CCOCCOCCOCCn5cc(CO[C@@H]6O[C@H](CO)[C@H](O)[C@H](O)[C@H]6O)nn5)nn4)nn3)nn2)[C@H](O)[C@@H](O)[C@H]1O [Compound 7]	~ 30%	induced the formation of the 6.4 S particle	–	–	–	-26.29 ± 0.196	281 ± 23.5 10^4 M^−1	17.4 ± 1.59	-8.8 ± 0.739	0.32 ± 0.01	no inhibitory effect; also recorded: no visible protective effect	–
COC(=O)c1cc(OCc2cn(CCn3cc(CO[C@@H]4O[C@H](CO)[C@H](O)[C@H](O)[C@H]4O)nn3)nn2)c(OCc2cn(CCn3cc(CO[C@@H]4O[C@H](CO)[C@H](O)[C@H](O)[C@H]4O)nn3)nn2)c(OCc2cn(CCn3cc(CO[C@@H]4O[C@H](CO)[C@H](O)[C@H](O)[C@H]4O)nn3)nn2)c1 [Compound 10]	~ 15%	induced the formation of the 6.4 S particle	≤ 125	approximately 32%	≥ 1	-16.3 ± 0.179	–	7.98 ± 0.925	-8.29 ± 0.87	0.53 ± 0.01	–	820

Reference: PMC6920806, “Synthesis of β-D-galactopyranoside-Presenting Glycoclusters, Investigation of Their Interactions with Pseudomonas aeruginosa Lectin A (PA-IL) and Evaluation of Their Anti-Adhesion Potential” (Biomolecules, 2019)
